Measured values reported in patent US5310745A, “Antiviral compounds” (priority 1992, dated 1994).
Where two headings read alike, the source gives them in different places.

Columns and labels:
[1] = Pharmacokinetic and metabolism study, rat; type: in vivo
Experimental: (§1) The parent tetrabutyrate compound consequently serves as an antivirally effective and useful pro-drug of the latter compound to which it is metabolized in the gut. […] The parent pro-drug was not detected. […] The oral bioactivity of the metabolite compound, measured as [^14 C]-metabolite compound, was determined to be between 28% and 50% in the Rhesus monkey, depending on the vehicle used (e.g., 0.5% methyl cellulose and 0.1% polysorbate in water). […] The blood levels of the metabolite compound, measured as part of a long term SIV infected monkey efficacy study, following oral dosing (high dose 750 mg/kg, low dose 250 mg/kg, administered every eight hours) with the pro-drug, yielded mean trough (cmin) plasma blood levels of the metabolite compound at eight hours post dosing of approximately 10 μg/mL and 6.8 μg/mL for the high and low doses, respectively.

[2] = test system: Sheep choroid plexus (SCP) cells; experiment: Toxicity of compounds in control wells without virus, graded morphologically; type: cell-based; set-up: key: 0: no toxicity; 4: total cell lysates; conditions: 0 to 4 scale, Table 1
Experimental: (§2) Sheep choroid plexus (SCP) cells were obtained from American Type Culture Collection (ATCC) catalogue number CRL 1700 and were routinely passaged in vitro in Dulbecco's Modified Eagles (DME) medium supplemented with 20% fetal bovine serum (FBS). SCP cells were passaged once per week at a 1:2 or 1:3 split ratio. Visna was titrated by plaque assay in six-well plates. Virus pools were stored at -70° C.
(§3) SCP cells were cultured in 6-well plates to confluence. Wells were washed two times with serum free Minimal Essential Medium (MEM) to remove FBS. 0.2 ml of virus was added per well in MEM supplemented with 4 mM glutamine and gentamycin. After 1 hour adsorption, the virus was aspirated from each well. The appropriate concentration of each compound in 5 ml of Medium 199 (M-199) supplemented With 2% lamb serum, 4 mM glutamine, 0.5% agarose and gentamycin was added to each well. Cultures were incubated at 37° C. in a humidified 5% CO2 incubator for 3-4 weeks. To terminate the test: cultures were fixed in 10% formalin, the agar removed, the monolayers stained with 1% crystal violet and plaques counted. Each compound concentration was run in triplicate. […] 0 is no toxicity observed while 4 is total lysing of the cell monolayer.

[3] = test system: visna virus; experiment: Plaque reduction assay, inhibition of visna virus in vitro; type: cell-based; set-up: key to Antiviral Activity: A: active compound; I: inactive compound; conditions: Table 1
Excerpt: Visna virus, a lentivirus genetically very similar to the AIDS virus, is pathogenic for sheep and goats. See Sonigo et al., Cell 42, 369-382 (1985); Haase, Nature 322, 130-136 (1986). Inhibition of visna virus replication in vitro as a useful model for human immunodeficiency virus (HIV) and its inhibition by test compounds has been described by Franket al., Antimicrobial Agents and Chemotherapy 31 (9), 1369-1374 (1987). The N-butyl derivative of 1,5-dideoxy-1,5-imino-D-glucitol, also referred to as n-butyl-deoxynojirimycin (N-Bu-DNJ), was used as a control standard for comparison with various novel compounds of this invention.
Various compounds as prepared above were tested for inhibition of visna virus in vitro in a plaque reduction assay as follows:
as §2, §3

[4] = Diarrheagenic effect; type: in vivo, monkey; conditions: normal, uninfected monkeys
[5] = Pharmacokinetic and metabolism study, Rhesus monkey; type: in vivo; conditions: for metabolic profiles of either radiolabeled compound (pro-drug, metabolite): monkey, oral, plasma and urine
Experimental: as §1

[6] = test system: Sheep choroid plexus (SCP) cells; experiment: Toxicity of compounds in control wells without virus, graded morphologically; type: cell-based; conditions: 0 to 4 scale, Table 1
Experimental: as §2, §3

[7] = test system: sucrase; experiment: Sucrase inhibition locally in the gut; type: in vivo, monkey; conditions: normal, uninfected monkeys
[8] = test system: HIV; conditions: disclosed in earlier patents/applications, cited from earlier work
[9] = oral [14C] pro-drug, Rhesus monkey

SMILES | Toxicity ([2]; 0.001 mM) | Toxicity ([2]; 0.01 mM) | Antiviral Activity ([3]; 0.001 mM) | Antiviral Activity ([3]; 0.01 mM) | Antiviral Activity ([3]; 0.1 mM) | Antiviral Activity ([3]; 1.0 mM) | metabolic profiles of either radiolabeled compound (pro-drug, metabolite) [5] | Toxicity ([6]; 0.1 mM) | also measured
CCCCN1C[C@H](OC(=O)CCC)[C@@H](OC(=O)CCC)[C@H](OC(=O)CCC)[C@H]1COC(=O)CCC [Example 16, 1,5-(Butylimino)-1,5-dideoxy-D-glucitol, tetrabutyrate] | 0 | 0 | A | A | A | Toxic | the same in plasma and urine | 1 | metabolic transformation in vivo [1]: controlled, sustained levels of a metabolite; parent pro-drug in plasma ([1]; oral [14C] pro-drug): not detected; radiolabeled compound in plasma after oral pro-drug ([1]; oral [14C] pro-drug): yielded only [^14 C]SC-metabolite compound in the plasma; parent pro-drug in portal plasma ([1]; oral, portal plasma): no parent pro-drug detected; Toxicity ([2]; 1.0 mM): 4; diarrheagenic results [4]: negative diarrheagenic results; metabolic transformation in vivo ([5]; Rhesus monkey): controlled, sustained levels of a metabolite; parent pro-drug in plasma [5, 9]: not detected; radiolabeled compound in plasma after oral pro-drug [5, 9]: yielded only [^14 C]SC-metabolite compound in the plasma; inhibition of sucrase locally in the gut [7]: does not significantly inhibit sucrase locally in the gut
CCCCN1C[C@H](O)[C@@H](O)[C@H](O)[C@H]1CO [N-Bu-DNJ, 1,5-(Butylimino)-1,5-dideoxy-D-glucitol, reference compound] | 0 | 0 | I | I | A | A | the same in plasma and urine | 1 | HIV inhibitory activity [8]: HIV inhibitory activity; HIV inhibitory activity ([8]; listed as N-butyl derivative of deoxynojirimycin): substantially more effective anti-HIV activity; Toxicity ([6]; 1.0 mM): 2
